Test results from ChEMBL document CHEMBL6096681, “Examining Arginase-1 Trimerization Uncovers a Promising Allosteric Site for Inhibition” (J Med Chem, 2025).
The source made the active and inactive calls. The rule behind the calls is not given here.

Key:
[1] = molecular target: T1, Arginase-1 (Homo sapiens) (UniProt P05089); experiment: Inhibition of full length N-terminal his6-tagged human ARG-1 expressed in Escherichia coli BL21 (DE3) cells at 10 mM incubated for 24 hrs relative to control
T1 sequence (whole entry): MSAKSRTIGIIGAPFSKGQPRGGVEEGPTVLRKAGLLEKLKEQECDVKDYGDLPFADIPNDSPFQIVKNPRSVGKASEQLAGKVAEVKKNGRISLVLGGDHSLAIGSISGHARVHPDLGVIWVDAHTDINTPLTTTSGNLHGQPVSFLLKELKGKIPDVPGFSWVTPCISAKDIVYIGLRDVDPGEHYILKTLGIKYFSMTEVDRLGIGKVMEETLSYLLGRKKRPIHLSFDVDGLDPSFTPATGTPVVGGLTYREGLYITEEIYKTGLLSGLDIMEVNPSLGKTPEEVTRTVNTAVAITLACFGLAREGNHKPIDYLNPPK

[2] = molecular target: T1, Arginase-1 (Homo sapiens); experiment: Inhibition of N-terminal his6-tagged truncated human ARG-1 expressed in Escherichia coli BL21 (DE3) cells at 10 mM incubated for 24 hrs
[3] = molecular target: T1, Arginase-1 (Homo sapiens); experiment: Inhibition of full length N-terminal his6-tagged human ARG-1 expressed in Escherichia coli BL21 (DE3) cells upto 20 mM incubated for 24 hrs by coomassie blue staining based SDS/PAGE analysis
[4] = molecular target: T1, Arginase-1 (Homo sapiens); experiment: Binding affinity to full length N-terminal his6-tagged human ARG-1 expressed in Escherichia coli BL21 (DE3) cells assessed as thermal stabilization at 0.625 to 20 mM measured for 24 hrs by nanoDSF analysis; conditions: dose 0.625-20 mM
[5] = molecular target: T1, Arginase-1 (Homo sapiens); experiment: Binding affinity to N-terminal his6-tagged truncated human ARG-1 expressed in Escherichia coli BL21 (DE3) cells assessed as thermal stabilization at 20 mM measured for 24 hrs by nanoDSF analysis
[6] = species on record: Homo sapiens; experiment: Inhibition of full length N-terminal his6-tagged human ARG-1 R205A mutant expressed in Escherichia coli BL21 (DE3) cells by mass spectrometry analysis

`O=CC(=O)c1ccccc1` was tested. Which inhibition [1] did it give?
The inhibition was 30%.

What about the inhibition [2] of the same compound?
The inhibition was “Active”.

And the inhibition [3]?
The inhibition was “Active”.

What about the Activity [4] of the same compound?
The Activity was “Active”.

And the Activity [5]?
The Activity was “Active”.

What about the inhibition [6] of the same compound?
Its inhibition is “Active”.
